According to patent US8815872B2, “Macrocyclics pyrimidines as aurora kinase inhibitors” (Merck Patent GmbH, priority 2008, dated 2014):

Columns and labels:
Experiment in all cases: Other kinases, single-concentration inhibition (Table 3)
Format in all cases: biochemical
Settings in all cases: 1 μM
[1] = target: T1, PDGFRα(h) (Homo sapiens, UniProt P16234)
T1 construct: purchased Caliper Life Sciences
Summary of the method: (§1)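 Mobility-shift readout (Caliper Desktop Profiler): substrate and phosphopeptide resolved electrophoretically from fluorescent label. Compounds tested at a single concentration, 90 min at 25 °C with labelled peptide and ATP. Percent inhibition relative to no-inhibitor and no-ATP wells.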

[2] = target: T2, CHK1(h) (Homo sapiens, UniProt O14757)
T2 construct: purchased Caliper Life Sciences
Summary of the method: as §1

[3] = target: T3, Fms(h) (Homo sapiens, UniProt P07333)
T3 construct: purchased Caliper Life Sciences
Summary of the method: as §1

[4] = target: T4, Lyn(h) (Homo sapiens, UniProt P07948)
T4 construct: purchased Caliper Life Sciences
Summary of the method: as §1

[5] = target: T5, cSRC(h) (Homo sapiens, UniProt P12931)
T5 construct: purchased Caliper Life Sciences
Summary of the method: as §1

T4 sequence (P07948 whole entry): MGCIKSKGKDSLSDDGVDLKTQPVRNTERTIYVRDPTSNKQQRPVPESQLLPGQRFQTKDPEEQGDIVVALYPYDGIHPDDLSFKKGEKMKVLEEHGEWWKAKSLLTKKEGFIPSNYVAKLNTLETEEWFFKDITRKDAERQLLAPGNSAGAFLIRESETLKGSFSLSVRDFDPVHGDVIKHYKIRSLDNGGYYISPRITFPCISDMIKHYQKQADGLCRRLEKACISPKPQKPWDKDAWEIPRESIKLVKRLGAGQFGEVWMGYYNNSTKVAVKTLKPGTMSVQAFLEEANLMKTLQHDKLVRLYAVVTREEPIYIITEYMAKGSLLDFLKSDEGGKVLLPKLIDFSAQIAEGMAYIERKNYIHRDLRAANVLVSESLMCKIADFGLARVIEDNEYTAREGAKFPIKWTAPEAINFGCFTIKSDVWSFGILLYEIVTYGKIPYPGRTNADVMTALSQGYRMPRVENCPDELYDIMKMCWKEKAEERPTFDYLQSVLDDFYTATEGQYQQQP
T1 sequence (P16234 24-1089): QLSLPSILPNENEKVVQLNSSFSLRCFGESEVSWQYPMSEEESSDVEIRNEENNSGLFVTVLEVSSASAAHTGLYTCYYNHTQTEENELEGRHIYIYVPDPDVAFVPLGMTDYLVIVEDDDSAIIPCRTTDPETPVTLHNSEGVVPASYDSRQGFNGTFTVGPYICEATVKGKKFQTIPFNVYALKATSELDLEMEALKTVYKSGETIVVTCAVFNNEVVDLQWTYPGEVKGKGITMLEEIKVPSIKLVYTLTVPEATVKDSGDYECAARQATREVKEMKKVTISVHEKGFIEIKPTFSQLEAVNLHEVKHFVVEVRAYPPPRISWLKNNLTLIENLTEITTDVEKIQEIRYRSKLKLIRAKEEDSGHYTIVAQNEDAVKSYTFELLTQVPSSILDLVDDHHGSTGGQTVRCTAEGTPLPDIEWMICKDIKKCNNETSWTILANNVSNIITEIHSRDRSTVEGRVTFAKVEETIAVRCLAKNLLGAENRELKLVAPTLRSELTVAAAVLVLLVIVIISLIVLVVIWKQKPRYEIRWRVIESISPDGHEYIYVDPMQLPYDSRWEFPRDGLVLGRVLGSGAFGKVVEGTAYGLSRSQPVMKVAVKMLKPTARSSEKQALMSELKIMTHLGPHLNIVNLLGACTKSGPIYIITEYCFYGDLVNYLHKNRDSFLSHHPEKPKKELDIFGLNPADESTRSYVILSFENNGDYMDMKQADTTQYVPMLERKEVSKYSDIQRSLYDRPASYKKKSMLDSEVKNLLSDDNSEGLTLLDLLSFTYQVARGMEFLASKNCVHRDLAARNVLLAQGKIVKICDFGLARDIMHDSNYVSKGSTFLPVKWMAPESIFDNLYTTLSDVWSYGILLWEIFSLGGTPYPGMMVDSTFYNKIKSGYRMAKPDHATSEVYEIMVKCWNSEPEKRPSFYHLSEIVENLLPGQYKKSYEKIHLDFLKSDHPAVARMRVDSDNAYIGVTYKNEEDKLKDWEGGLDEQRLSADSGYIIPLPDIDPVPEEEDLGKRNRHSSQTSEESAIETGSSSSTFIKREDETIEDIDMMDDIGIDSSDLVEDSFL
T3 sequence (P07333 20-972): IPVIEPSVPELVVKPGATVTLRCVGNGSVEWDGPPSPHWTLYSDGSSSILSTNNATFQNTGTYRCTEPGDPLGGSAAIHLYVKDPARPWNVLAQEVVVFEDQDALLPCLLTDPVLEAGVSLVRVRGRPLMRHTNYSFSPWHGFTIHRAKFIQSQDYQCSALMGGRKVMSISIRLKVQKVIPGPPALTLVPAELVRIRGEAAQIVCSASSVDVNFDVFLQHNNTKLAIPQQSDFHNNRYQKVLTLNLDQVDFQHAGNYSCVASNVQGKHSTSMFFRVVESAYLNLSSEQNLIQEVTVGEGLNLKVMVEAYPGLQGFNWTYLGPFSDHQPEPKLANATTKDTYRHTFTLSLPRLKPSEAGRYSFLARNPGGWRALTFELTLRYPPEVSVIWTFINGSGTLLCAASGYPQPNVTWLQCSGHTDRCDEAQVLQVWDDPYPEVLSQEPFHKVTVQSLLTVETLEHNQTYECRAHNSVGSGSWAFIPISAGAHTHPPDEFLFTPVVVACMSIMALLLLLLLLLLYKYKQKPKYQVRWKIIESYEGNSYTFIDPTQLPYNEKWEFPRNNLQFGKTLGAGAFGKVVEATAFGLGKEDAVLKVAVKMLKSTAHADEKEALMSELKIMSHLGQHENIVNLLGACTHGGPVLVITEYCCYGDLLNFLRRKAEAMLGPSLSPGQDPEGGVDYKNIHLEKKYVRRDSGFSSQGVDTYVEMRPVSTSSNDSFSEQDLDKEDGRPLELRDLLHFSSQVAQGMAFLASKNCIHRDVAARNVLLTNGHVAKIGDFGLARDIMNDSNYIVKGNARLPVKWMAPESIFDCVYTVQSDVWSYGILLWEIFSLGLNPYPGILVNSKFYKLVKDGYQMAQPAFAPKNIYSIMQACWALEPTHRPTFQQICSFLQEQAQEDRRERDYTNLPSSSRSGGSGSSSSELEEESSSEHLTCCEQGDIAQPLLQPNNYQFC
T5 sequence (P12931 whole entry): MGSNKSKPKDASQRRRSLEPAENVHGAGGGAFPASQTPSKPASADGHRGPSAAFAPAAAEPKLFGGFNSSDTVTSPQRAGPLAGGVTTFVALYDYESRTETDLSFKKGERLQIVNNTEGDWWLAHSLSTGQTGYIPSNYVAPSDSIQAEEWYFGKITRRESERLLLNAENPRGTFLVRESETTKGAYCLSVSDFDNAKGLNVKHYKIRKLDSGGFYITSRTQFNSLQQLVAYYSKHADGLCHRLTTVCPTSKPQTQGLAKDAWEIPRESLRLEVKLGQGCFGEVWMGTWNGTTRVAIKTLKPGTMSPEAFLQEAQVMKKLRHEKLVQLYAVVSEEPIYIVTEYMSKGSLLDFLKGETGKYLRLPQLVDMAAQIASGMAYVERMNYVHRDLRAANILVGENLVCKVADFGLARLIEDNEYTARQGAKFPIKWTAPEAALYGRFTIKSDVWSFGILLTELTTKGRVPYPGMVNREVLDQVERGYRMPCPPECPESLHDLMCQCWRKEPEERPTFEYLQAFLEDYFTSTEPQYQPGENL
T2 sequence (O14757 whole entry): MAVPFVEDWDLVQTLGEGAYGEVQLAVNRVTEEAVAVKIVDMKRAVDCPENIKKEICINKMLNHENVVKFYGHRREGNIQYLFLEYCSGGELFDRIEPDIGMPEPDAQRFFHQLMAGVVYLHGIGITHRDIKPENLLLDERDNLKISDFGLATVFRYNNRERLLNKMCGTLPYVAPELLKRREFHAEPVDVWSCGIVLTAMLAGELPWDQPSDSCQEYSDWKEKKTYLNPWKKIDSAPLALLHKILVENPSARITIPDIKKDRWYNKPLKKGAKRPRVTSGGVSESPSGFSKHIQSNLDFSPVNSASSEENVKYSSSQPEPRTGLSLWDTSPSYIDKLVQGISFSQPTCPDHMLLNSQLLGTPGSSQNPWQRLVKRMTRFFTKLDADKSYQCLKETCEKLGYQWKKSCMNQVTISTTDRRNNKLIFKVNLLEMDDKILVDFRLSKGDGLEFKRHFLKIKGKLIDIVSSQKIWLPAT

CN1CCN(c2ccc3cc2OCCS[C@@H]2C[C@@H]4C[C@H]2[C@@H](Nc2nc(ncc2F)N3)[C@H]4C(N)=O)CC1 [Example 22]
% inhibition PDGFRα(h) [1]: 87% | % inhibition CHK1(h) [2]: 101% | % inhibition Fms(h) [3]: 82% | % inhibition Lyn(h) [4]: 12% | % inhibition cSRC(h) [5]: 16%
